Results as given in article PMC6152983, “An amine oxidase gene from mud crab, Scylla paramamosain, regulates the neurotransmitters serotonin and dopamine in vitro” (PLoS ONE, 2018).

Target: T1, SpAMO (Scylla paramamosain, UniProt A0A3G2KVP6)
T1 sequence (A0A3G2KVP6 2-506): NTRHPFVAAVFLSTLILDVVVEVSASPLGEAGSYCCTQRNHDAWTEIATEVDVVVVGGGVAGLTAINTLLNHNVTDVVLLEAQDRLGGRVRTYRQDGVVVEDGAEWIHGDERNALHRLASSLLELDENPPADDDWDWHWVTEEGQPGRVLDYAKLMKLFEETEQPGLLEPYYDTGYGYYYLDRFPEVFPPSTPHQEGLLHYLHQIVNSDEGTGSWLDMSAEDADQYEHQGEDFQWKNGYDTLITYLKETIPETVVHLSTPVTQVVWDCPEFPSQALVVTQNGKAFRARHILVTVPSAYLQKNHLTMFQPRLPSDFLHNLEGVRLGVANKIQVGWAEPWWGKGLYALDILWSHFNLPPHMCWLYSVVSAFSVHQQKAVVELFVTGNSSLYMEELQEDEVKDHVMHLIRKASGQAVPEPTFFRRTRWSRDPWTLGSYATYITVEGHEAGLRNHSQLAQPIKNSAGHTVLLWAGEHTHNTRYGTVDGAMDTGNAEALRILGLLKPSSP
Assay: luminol/horseradish peroxidase chemiluminescence of H2O2
Format: biochemical
Conditions: glycine buffer pH 8.0, 37 °C; 50 μL of 1.5 mmol/L substrate

NCCc1ccc(O)c(O)c1 [dopamine]
luminol/horseradish peroxidase chemiluminescence of H2O2: oxidative deamination of 5-HT and DA by SpAMO was significantly stronger
